According to US8313736B2, “Chemically stable ingredients as lemon odorant” (Firmenich SA, priority 2008, dated 2012):

How the values were obtained:
[1] = test system: Mammalian Erythrocyte Micronucleus; test: In vivo test for clastogenic effects, Mammalian Erythrocyte Micronucleus Test (OECD 474)
Description: In vivo test for clastogenic effects performed on 3,6,7-trimethyl-2,6-octadienenitrile and 3,7-dimethyl-2,6-octadienenitrile under the conditions required by the standard test protocol for Mammalian Erythrocyte Micronucleus Test (OECD 474, OECD web site http://lysander.sourceoecd.org/v1=155221/c1=19/nw=1/rpsv/ij/oecdjournals/1607310x/v1n 4/s39/p1) gave the following results: • 3,6,7-trimethyl-2,6-octadienenitrile: the test was negative (i.e. no perceived toxicity) in the dose range between 200-1200 mg/kg. • 3,7-dimethyl-2,6-octadienenitrile: the test was positive (i.e. perceived toxicity) in the dose range between 500-1250 mg/kg (overlapping the dose range of the invention compound herein above). This ingredient has been banned for its clastogenic effect.

[2] = reason for ban; cited from earlier work

Structure (SMILES) | Mammalian Erythrocyte Micronucleus Test result (clastogenic effects) ([1]; dose range between 500-1250 mg/kg) | Mutagenicity [2] | Clastogenicity (induction of chromosome-damages) ([1]; E and Z isomers or a mixture thereof) | Mammalian Erythrocyte Micronucleus Test result (clastogenic effects) ([1]; dose range between 200-1200 mg/kg)
CC(C)=CCCC(C)=CC#N [3,7-dimethyl-2,6-octadienenitrile] | positive | mutagenic | – | –
CC(=CC#N)CCC(C)=C(C)C [3,6,7-trimethyl-2,6-octadienenitrile] | – | – | not clastogenic | negative
